# Measured values published in ChEMBL document CHEMBL6103565, “Current strategies in design and synthesis of antifungals hybrid and chimeric diazine derivatives” (Bioorg Med Chem, 2025).
# System: Candida albicans
# Assay: Antimicrobial activity against Candida albicans ATCC 64124 assessed as reduction in microbial growth by CLSI protocol based micro-broth dilution method
# Format: functional
# Conditions: not given
row,Compound,MIC [µg/mL]
1,Cc1nc(-c2ccc(C(C)(C)C)cc2)sc1-c1ccnc(N[C@H]2CCCC[C@@H]2N)n1,4
2,Cc1nc(-c2ccc(C(C)(C)C)cc2)sc1-c1ccnc(NCCCN)n1,4
3,Cc1nc(-c2ccc(C(C)(C)C)cc2)sc1-c1ccnc(N[C@H]2CCCCC2CN)n1 (stereo partly specified),4

# System: Aspergillus niger
# Assay: Antifungal activity against Aspergillus niger assessed as zone of inhibition by disc diffusion method; further: test concentration or dose not given here
# Format: functional
# Conditions: not given
row,Compound,inhibition zone (IZ) [mm]
1,COc1ccc(C2c3c([nH]c(=O)[nH]c3=O)OC3N=CN(C(=S)Nc4ccccc4)C(=N)C32)cc1 (stereo unspecified),10
2,CC1=NN(c2ccccc2)C2N=C3SCCN3C(c3ccccc3O)C12 (stereo unspecified),24
3,COc1ccc(C2c3c([nH]c(=O)[nH]c3=O)OC3N=CN(C(N)=O)C(=N)C32)cc1 (stereo unspecified),10
4,COc1ccc(C2c3c([nH]c(=O)[nH]c3=O)OC3N=CN(c4cc(C)ccn4)C(=N)C32)cc1 (stereo unspecified),10
5,Cc1ccc(C2c3c([nH]c(=O)[nH]c3=O)OC(NC(=O)/C=C/C(=O)O)C2C#N)cc1 (stereo unspecified),10
6,COc1ccc(C2c3c([nH]c(=O)[nH]c3=O)OC3N=CN(c4ccccc4N)C(=N)C32)cc1 (stereo unspecified),10
7,O=c1c(C(O)c2ccccc2)c(SCc2ccccc2)[nH]c2nc(-c3ccccc3)c(-c3ccccc3)n12 (stereo unspecified),15
8,CC1=NN(c2ccccc2)C2N=C3SCCN3C(c3cccc(Cl)c3)C12 (stereo unspecified),24
9,CC1=NN(c2ccccc2)C2N=C3SCCN3C(c3ccc(F)cc3)C12 (stereo unspecified),24
10,CC1=NN(c2ccccc2)C2N=C3SCCN3C(c3cccc([N+](=O)[O-])c3)C12 (stereo unspecified),24
11,O=c1c(C(O)c2ccccc2)c2sc(S)c(-c3ccccc3)n2c2nc(-c3ccccc3)c(-c3ccccc3)n12 (stereo unspecified),15
12,CC1=NN(c2ccccc2)C2N=C3SCCN3C(c3ccccc3[N+](=O)[O-])C12 (stereo unspecified),24
13,CCC(C)N1C=NC2Oc3[nH]c(=O)[nH]c(=O)c3C(c3ccc(OC)cc3)C2C1=N (stereo unspecified),10
14,Cc1ccc(C2c3c([nH]c(=O)[nH]c3=O)OC(N)C2C#N)cc1 (stereo unspecified),10
15,CC1=NN(c2ccccc2)C2N=C3SCCN3C(c3ccccc3Cl)C12 (stereo unspecified),24

# System: Pichia kudriavzevii
# Assay: Antifungal activity against Candida krusei ATCC 6258
# Format: functional
# Conditions: not given
row,Compound,MIC [µg/mL]
1,Nc1ccc(C(=O)NNc2nc3ccccc3nc2Cl)cc1,0.78
2,Nc1nc2ccccc2nc1NC1CC(C(=O)O)=CC1=O (stereo unspecified),0.78
3,Cc1nc2ccccc2nc1N1CC(C(=O)O)=CC1=O,0.78
4,Cc1nc2ccccc2nc1NNC(=O)c1ccc(N)cc1,0.78
5,COc1nc2ccccc2nc1N1CC(C(=O)O)=CC1=O,0.78

# System: Candida parapsilosis
# Assay: Antifungal activity against Candida parapsilosis ATCC 22019
# Format: functional
# Conditions: Lodderomyces parapsilosis
row,Compound,MIC [µg/mL]
1,Nc1ccc(C(=O)NNc2nc3ccccc3nc2Cl)cc1,0.78
2,Nc1nc2ccccc2nc1NC1CC(C(=O)O)=CC1=O (stereo unspecified),0.78
3,Cc1nc2ccccc2nc1N1CC(C(=O)O)=CC1=O,0.78
4,Cc1nc2ccccc2nc1NNC(=O)c1ccc(N)cc1,0.78
5,COc1nc2ccccc2nc1N1CC(C(=O)O)=CC1=O,0.78

# System: Candida albicans
# Assay: Antifungal activity against Candida albicans assessed as zone of inhibition by serial dilution and disc diffusion method; further: test concentration or dose not given here
# Format: functional
# Conditions: not given
row,Compound,inhibition zone (IZ) [mm]
1,COc1ccc(/C=N/Nc2ncnc3[nH]ccc23)c(OC)c1,30
2,COc1ccc(/C=N/Nc2ncnc3[nH]ccc23)cc1,30
3,COc1cccc(/C=N/Nc2ncnc3[nH]ccc23)c1,30
4,COc1ccc(OC)c(/C=N/Nc2ncnc3[nH]ccc23)c1,30
5,Brc1cc(Br)cc(/C=N/Nc2ncnc3[nH]ccc23)c1,21
6,COc1ccccc1/C=N/Nc1ncnc2[nH]ccc12,30
7,COc1cccc(/C=N/Nc2ncnc3[nH]ccc23)c1OC,30

# System: Candida albicans
# Assay: Antifungal activity against Candida albicans assessed as zone of inhibition by disc diffusion method; further: test concentration or dose not given here
# Format: functional
# Conditions: not given
row,Compound,inhibition zone (IZ) [mm]
1,CC1=N/C(=C\c2ccc(Cl)cc2)C(=O)N1c1c(N)n(C)c(=O)n(C)c1=O,10
2,CN(C)c1ccc(/C=N/c2c(N)n(Cc3ccccc3)c(=O)[nH]c2=O)cc1,10
3,C(=N\c1ncnc2[nH]ccc12)/c1ccccc1,15
4,O=[N+]([O-])c1ccc(/C=N/c2ncnc3[nH]ccc23)cc1,15
5,Fc1cccc(/C=N/c2ncnc3[nH]ccc23)c1,15
6,Fc1ccc(/C=N/c2ncnc3[nH]ccc23)cc1,15
7,Fc1ccccc1/C=N/c1ncnc2[nH]ccc12,15
8,O=[N+]([O-])c1cccc(/C=N/c2ncnc3[nH]ccc23)c1,15
9,CN(C)c1ccc(/C=N/c2ncnc3[nH]ccc23)cc1,15

# System: Saccharomyces cerevisiae
# Assay: Antimicrobial activity against Saccharomyces cerevisiae assessed as zone of inhibition; further: test concentration or dose not given here
# Format: functional
# Conditions: not given
row,Compound,inhibition zone (IZ) [mm]
1,COc1ccc(/C=N/Nc2ncnc3[nH]ccc23)c(OC)c1,24
2,COc1ccc(/C=N/Nc2ncnc3[nH]ccc23)cc1,24
3,COc1cccc(/C=N/Nc2ncnc3[nH]ccc23)c1,24
4,COc1ccc(OC)c(/C=N/Nc2ncnc3[nH]ccc23)c1,24
5,Brc1cc(Br)cc(/C=N/Nc2ncnc3[nH]ccc23)c1,21
6,COc1ccc(/C=N/Nc2ncnc3[nH]ccc23)cc1OC,24
7,COc1cccc(/C=N/Nc2ncnc3[nH]ccc23)c1OC,24

# System: Saccharomyces cerevisiae
# Assay: Antimicrobial activity against Saccharomyces cerevisiae assessed as zone of inhibition by disc diffusion method; further: test concentration or dose not given here
# Format: functional
# Conditions: not given
row,Compound,inhibition zone (IZ) [mm]
1,O=[N+]([O-])c1ccccc1/C=N/c1ncnc2[nH]ccc12,13
2,C(=N\c1ncnc2[nH]ccc12)/c1ccccc1,13
3,O=[N+]([O-])c1ccc(/C=N/c2ncnc3[nH]ccc23)cc1,13
4,Fc1cccc(/C=N/c2ncnc3[nH]ccc23)c1,21
5,Fc1ccc(/C=N/c2ncnc3[nH]ccc23)cc1,13
6,Fc1ccccc1/C=N/c1ncnc2[nH]ccc12,13
7,O=[N+]([O-])c1cccc(/C=N/c2ncnc3[nH]ccc23)c1,13
8,CN(C)c1ccc(/C=N/c2ncnc3[nH]ccc23)cc1,13

# System: Candida albicans
# Assay: Antifungal activity against Candida albicans assessed as diameter of zone inhibition by disc diffusion method; further: test concentration or dose not given here
# Format: functional
# Conditions: not given
row,Compound,inhibition zone (IZ) [mm]
1,CCOC(=O)c1cc(C(=O)c2ccc(C)cc2)n2ncc3ccccc3c12,18
2,COC(=O)c1c(C(=O)OC)c2c3ccccc3c(C)nn2c1C(=O)c1ccc(C)cc1,18
3,CC1=CC2C(C#N)CC(C(=O)c3ccc([N+](=O)[O-])cc3)N2C=N1 (stereo unspecified),24
4,CCOC(=O)c1c(C(=O)OCC)c2cc(C)ncn2c1C(=O)c1ccc(OC)cc1,24
5,CC1=NN2C(C(=O)c3ccc(C)cc3)C3C(=O)N(c4ccccc4)C(=O)C3C2c2ccccc21 (stereo unspecified),18
6,CCOC(=O)c1c(C(=O)OCC)c2cc(C)ncn2c1C(=O)c1ccc(Br)cc1,22
7,COC(=O)c1c(C(=O)OC)c2cccnn2c1C(=O)c1ccc(C)cc1,18
8,Cc1ccc(C(=O)C2CC(C#N)C3C=CC=NN23)cc1 (stereo unspecified),18
9,CCOC(=O)c1cc(C(=O)c2ccc(C)cc2)n2ncccc12,18
10,CN(C)C=O [DIMETHYLFORMAMIDE],16
11,CCOC(=O)c1c(C(=O)OCC)c2cc(C)ncn2c1C(=O)c1ccc([N+](=O)[O-])cc1,28
12,CCOC(=O)c1cc(C(=O)c2ccc(C)cc2)n2nc(C)c3ccccc3c12,18
13,Cc1ccc(C(=O)C2CC(C#N)C3c4ccccc4C=NN23)cc1 (stereo unspecified),18
14,Cc1ccc(C(=O)C2C3C(=O)N(c4ccccc4)C(=O)C3C3c4ccccc4C=NN23)cc1 (stereo unspecified),18
15,CC1=NN2C(C(=O)c3ccc(C)cc3)CC(C#N)C2c2ccccc21 (stereo unspecified),18
16,CC1=CC2C(C#N)CC(C(=O)c3ccc(Br)cc3)N2C=N1 (stereo unspecified),22
17,COC(=O)c1c(C(=O)OC)c2c3ccccc3cnn2c1C(=O)c1ccc(C)cc1,18
18,Cc1ccc(C(=O)C2C3C(=O)N(c4ccccc4)C(=O)C3C3C=CC=NN32)cc1 (stereo unspecified),18
19,COc1ccc(C(=O)C2CC(C#N)C3C=C(C)N=CN23)cc1 (stereo unspecified),23

# System: Candida albicans
# Assay: Antifungal activity against Candida albicans
# Format: functional
# Conditions: not given
row,Compound,MIC [µg/mL]
1,O=c1cc[nH]c(=O)n1N=C1CC(c2ccc(Cl)cc2)SC(c2ccc(Cl)cc2)C1 (stereo unspecified),0.25
2,O=C(CN1CCn2c(nnc2C(F)(F)F)C1)Nc1nc2ccccc2s1,250
3,Cl.FC(F)(F)c1nnc2n1CCNC2,250

# System: Candida albicans
# Assay: Antifungal activity against Candida albicans ATCC 10231
# Format: functional
# Conditions: not given
row,Compound,MIC50 [µg/mL]
1,Nc1ccc(C(=O)NNc2nc3ccccc3nc2Cl)cc1,0.78
2,Nc1nc2ccccc2nc1NC1CC(C(=O)O)=CC1=O (stereo unspecified),0.78
3,Cc1nc2ccccc2nc1N1CC(C(=O)O)=CC1=O,0.78
4,Cc1nc2ccccc2nc1NNC(=O)c1ccc(N)cc1,0.78
5,COc1nc2ccccc2nc1N1CC(C(=O)O)=CC1=O,0.78

# System: Candida tropicalis
# Assay: Antifungal activity against Candida tropicalis assessed as inhibition of fungal growth
# Format: functional
# Conditions: not given
row,Compound,MIC [µM]
1,Nc1nc(-c2cccnc2)cc(-c2cnc(Cl)cn2)n1,110
2,Nc1nc(-c2cnc(Cl)cn2)cc(-c2ccc(Cl)cc2Cl)n1,45.4
3,Nc1nc(-c2ccc([N+](=O)[O-])cc2)cc(-c2cnc(Cl)cn2)n1,97.3
4,Nc1nc(-c2ccc(F)cc2)cc(-c2cnc(Cl)cn2)n1,97.3
5,Nc1nc(Cc2ccco2)cc(-c2cnc(Cl)cn2)n1,110
6,Nc1nc(-c2ccccn2)cc(-c2cnc(Cl)cn2)n1,110
7,Nc1nc(-c2ccc(O)cc2)cc(-c2cnc(Cl)cn2)n1,97.3
8,Nc1nc(-c2ccc(Cl)cc2)cc(-c2cnc(Cl)cn2)n1,97.3
9,Nc1nc(-c2cnc(Cl)cn2)cc(-c2cccs2)n1,110
10,Nc1nc(-c2cnc(Cl)cn2)cc(-c2ccc(F)cc2F)n1,50
11,Nc1nc(-c2ccccc2)cc(-c2cnc(Cl)cn2)n1,97.3
12,COc1cc(-c2cc(-c3cnc(Cl)cn3)nc(N)n2)ccc1O,107
13,COc1ccc(-c2cc(-c3cnc(Cl)cn3)nc(N)n2)c(OC)c1,101
14,COc1ccc(-c2cc(-c3cnc(Cl)cn3)nc(N)n2)cc1,97.3
15,Nc1nc(-c2ccncc2)cc(-c2cnc(Cl)cn2)n1,110
16,CN(C)c1ccc(-c2cc(-c3cnc(Cl)cn3)nc(N)n2)cc1,97.3
17,Nc1nc(-c2cnc(Cl)cn2)cc(-c2ccc[nH]2)n1,110
18,Cc1ccc(-c2cc(-c3cnc(Cl)cn3)nc(N)n2)cc1,97.3

# System: Candida albicans
# Assay: Antifungal activity against Candida albicans assessed as diameter of zone inhibition; further: test concentration or dose not given here
# Format: functional
# Conditions: not given
row,Compound,inhibition zone (IZ) [mm]
1,COC(=O)C1C(C(=O)OC)C(C(=O)c2ccccc2)N2N=C(c3ccc(Cl)cc3)C=CC12 (stereo unspecified),25
2,COC(=O)C1C(C(=O)OC)C(C(=O)c2ccc([N+](=O)[O-])cc2)N2N=C(c3ccc(Cl)cc3)C=CC12 (stereo unspecified),24
3,Cc1cccc(-c2nc3ccccc3nc2N2CCN(Cc3ccccc3)CC2)c1,14
4,CCOC(=O)C1CC(C(=O)c2ccccc2)N2N=C(c3ccc(Cl)cc3)C=CC12 (stereo unspecified),24

# System: Aspergillus niger
# Assay: Antifungal activity against Aspergillus niger assessed as inhibition of fungal growth
# Format: functional
# Conditions: not given
row,Compound,MIC [µM]
1,Nc1nc(-c2cccnc2)cc(-c2cnc(Cl)cn2)n1,110
2,Nc1nc(-c2cnc(Cl)cn2)cc(-c2ccc(Cl)cc2Cl)n1,45.4
3,Nc1nc(-c2ccc([N+](=O)[O-])cc2)cc(-c2cnc(Cl)cn2)n1,97.3
4,Nc1nc(-c2ccc(F)cc2)cc(-c2cnc(Cl)cn2)n1,97.3
5,Nc1nc(Cc2ccco2)cc(-c2cnc(Cl)cn2)n1,110
6,Nc1nc(-c2ccccn2)cc(-c2cnc(Cl)cn2)n1,110
7,Nc1nc(-c2ccc(O)cc2)cc(-c2cnc(Cl)cn2)n1,97.3
8,Nc1nc(-c2ccc(Cl)cc2)cc(-c2cnc(Cl)cn2)n1,97.3
9,Nc1nc(-c2cnc(Cl)cn2)cc(-c2cccs2)n1,110
10,Nc1nc(-c2cnc(Cl)cn2)cc(-c2ccc(F)cc2F)n1,50
11,Nc1nc(-c2ccccc2)cc(-c2cnc(Cl)cn2)n1,97.3
12,COc1cc(-c2cc(-c3cnc(Cl)cn3)nc(N)n2)ccc1O,107
13,COc1ccc(-c2cc(-c3cnc(Cl)cn3)nc(N)n2)c(OC)c1,101
14,COc1ccc(-c2cc(-c3cnc(Cl)cn3)nc(N)n2)cc1,97.3
15,Nc1nc(-c2ccncc2)cc(-c2cnc(Cl)cn2)n1,110
16,CN(C)c1ccc(-c2cc(-c3cnc(Cl)cn3)nc(N)n2)cc1,97.3
17,Nc1nc(-c2cnc(Cl)cn2)cc(-c2ccc[nH]2)n1,110
18,Cc1ccc(-c2cc(-c3cnc(Cl)cn3)nc(N)n2)cc1,97.3

# System: Nakaseomyces glabratus
# Assay: Antifungal activity against Candida glabrata ATCC 90030
# Format: functional
# Conditions: not given
row,Compound,MIC [µg/mL]
1,Nc1ccc(C(=O)NNc2nc3ccccc3nc2Cl)cc1,0.78
2,Nc1nc2ccccc2nc1NC1CC(C(=O)O)=CC1=O (stereo unspecified),0.78
3,Cc1nc2ccccc2nc1N1CC(C(=O)O)=CC1=O,0.78
4,Cc1nc2ccccc2nc1NNC(=O)c1ccc(N)cc1,0.78
5,COc1nc2ccccc2nc1N1CC(C(=O)O)=CC1=O,0.78
